According to patent publication US3944557A, “Pyridinium salts” (Commonwealth Scientific & Industrial Research Organization, priority 1973, dated 1976):

Key:
[1] = test system: Fusarium oxysporum; experiment: Infection of tomato seedlings by F. oxysporum (soil application); type: in vivo; settings: read-out: Protection of tomato seedlings from infection by F. oxysporum
Description: Infection of tomato seedlings by F. oxysporum
100% protection 8 kg/ha (soil application) ++
50% protection at 8 kg/ha (soil application) +

[2] = test system: Phytophthora cinnamomi; experiment: Protection of lupin seedlings from infection by P. cinnamomi; type: in vivo; settings: Table 7
Description: Protection of lupin seedlings from infection by […]

[3] = test system: Monolinia fructicola; experiment: Inhibition of spore germination of M. fructicola; type: cell-based; settings: Monilinia fructicola; Table 7; read-out: 50% inhibition of spore germination (Monolinia fructicola spore germination)
Description: 50% inhibition of spore germination of M. fructicola

[4] = test system: Rhizoctonia solani; experiment: Infection of cotton seedlings by Rh. solani (soil application); type: in vivo; settings: Table 7, 16 kg/ha, read-out: Protection of cotton seedlings from infection by Rh. solani
Description: Infection of cotton seedlings by Rh. solani
100% protection at 16 kg/ha (soil application) ++
50% protection at 16 kg/ha (soil application) +

| SMILES | pest or weed control at 8000 g/ha [1] [%] | minimal effective concentration [2] [µg/mL] | IC50 [3] [µg/mL] | pest or weed control at 16000 g/ha [4] [%] |
| --- | --- | --- | --- | --- |
| N#Cc1c(NCc2ccccc2)cc(N)[n+](Cc2ccccc2)c1Cl [Compound 17] | 50 | 2 to 8 | 5 to 50 |  |
| CCCCNc1cc(N)[n+](CCCC)c(NCc2ccco2)c1C#N [Compound 36] |  | 2 to 8 | 5 to 50 | 50 |
| CCCCCCNc1cc(N)[n+](CCCCCC)c(NCCCC)c1C#N.[Cl-] [Compound 42, 2-amino-6-n-butylamino-5-cyano-1-n-hexyl-4-n-hexylamino pyridinium chloride] |  | ≤ 2 | ≤ 5 |  |
| CCCCCCNc1c(Br)c(N)[n+](CCCCCC)c(Cl)c1C#N [Compound 67] | 50 | 2 to 8 | ≤ 5 |  |
| CCCCCCCCNc1cc(N)[n+](CCCCCCCC)c(Cl)c1C#N.[Cl-] [Compound 14, 2-amino-6-chloro-5-cyano-1-n-octyl-4-n-octylamino pyridinium chloride] | 50 | ≤ 2 | ≤ 5 | 100 |
| CCCCCCCCCCCCNc1c(C#N)c(NC)cc(N)[n+]1C [Compound 27] |  | 30 |  | 100 |
| CCCCCCCNc1cc(N)[n+](CCCCCCC)c(Cl)c1C#N [Compound 13] | 50 | ≤ 2 | ≤ 5 |  |
| CCCCCCNc1cc(N)[n+](CCCCCC)c(Sc2ccccc2)c1C#N.[Cl-] [Compound 78, 2-amino-5-cyano-1-n-hexyl-4-n-hexylamino-6-phenylmercapto pyridinium chloride] |  | ≤ 2 | ≤ 5 | 50 |
| CNc1cc(N)[n+](C)c(NCc2ccco2)c1C#N [Compound 23] | 100 | > 8 |  |  |
| CCCCCCCCNc1cc(N)[n+](CCCCCCCC)c(N)c1C#N [Compound 46] |  | ≤ 2 | ≤ 5 | 50 |
| CCCCCCCCNc1c(C#N)c(NCCCCCC)cc(N)[n+]1CCCCCC [Compound 44] | 50 | ≤ 2 | ≤ 5 |  |
| CC(C)Nc1cc(N)[n+](C(C)C)c(S(=O)(=O)[O-])c1C#N [Compound 59] |  | > 8 |  | 100 |
